Measurements reported in patent publication US20160279108A1, “TARGETED MTOR INHIBITORS” (UNIVERSITY OF KANSAS, priority 2015, published 2016).

What was measured:
[1] = cited from earlier work
[2] = Stak (US 20110201639 A1) for tacrolimus; cited from earlier work
[3] = mice, 2 mg/kg; cited from earlier work
[4] = Tissue distribution in tumor-bearing mice; format: in vivo, BALB/c mice; conditions: for concentration at 12 h: female, BALB/c, mouse, intraperitoneal, 10 mg/kg
Description: Drug tissue distribution was determined in female BALB/c mice (n=5). Tissue samples (50 mg) in 500 μL PBS were homogenized using a Tissue Tearor (BioSpec Products, Inc., Bartivesville, Okla.). The homogenized tissue was mixed with 250 μL ZnSO4 and 500 μL methanol. The mixture solution was centrifuged and the supernatant was analyzed by LC/MS.
In the tissue distribution study, BLAB/c mice were administered the drugs 12 h before being euthanized. Major organs (liver, kidneys, hear, spleen, lungs, brain, muscle), tumor and lymph nodes were excised and lightly washed with PBS. The organs were stored at −80° C. until analyzed by LC/MS.

[5] = Pharmacokinetics study in rats; format: in vivo, Sprague-Dawley rats
Description: Whole blood was withdrawn (100 μL) from the tail vein at 0 min, 5 min, 30 min, 1 h, 2 h, 4 h, 6 h, 12 h, 24 h and 48 h after dosing and placed in heparinized tubes (BD Vacutainer® Lithium Heparin 37 USP unit, BD Franklin Lakes, N.J.). The whole blood was centrifuged at 15,000×g for 10 min, and the plasma was frozen at −80° C. until analyzed. The animal use statement was approved by the University of Kansas Institutional Animal Care and Use Committee. Plasma samples and stander curves were prepared using a procedure reported previously.

[6] = i.v., rats, own previous studies; cited from earlier work
[7] = system: 4T1.2neu breast cancer; assay: Animal survival and tumor suppression study; conditions: for median survival time: 10 mg/kg equivalent rapamycin once per week for 3 weeks, free rapamycin i.p., HA-L-Rapa s.c., control 17 days
[8] = system: MDA-MB-468 cells; conditions: MDA-MB-468 with H-CAM blocking of CD44, p=0.065
Description: Breast cancer MDA-MB-468 cells were maintained in Dulbecco's modified eagle medium supplemented with 10% fetal bovine serum (Hyclone Laboratory Inc., Logan, Utah). Cells were plated in white 96-well flat-bottomed plates at the concentration of 5,000 cells/well in 90 μL of growth medium. […] Hanks' solution and 10% trichloroacetic acid (TCA) were used as negative and positive control, respectively. The medium was refreshed 8 h after treatment. After 72 h post-treatment, resazurin blue (5 μM) was added and the resorufin product was measured with a fluorophotometer using an excitation wavelength of 550 nm and an emission wavelength of 590 nm.

[9] = system: MDA-MB-468 cells; conditions: 10 μM
Description: Breast cancer cells, MDA-MB-468, were seeded in a 12-well plate at the concentration of 50,000 cells/well in 1 mL of growth medium. After 12 h incubation, 10 μL of human anti-CD44 antibody was added to each well.

[10] = in vivo; cited from earlier work
[11] = female, Sprague-Dawley, rat, plasma, ip, 10 mg/kg

For `CO[C@H]1C[C@@H]2CC[C@@H](C)[C@@](O)(O2)C(=O)C(=O)N2CCCC[C@H]2C(=O)O[C@H]([C@H](C)C[C@@H]2CC[C@@H](O)[C@H](OC)C2)CC(=O)[C@H](C)/C=C(\C)[C@@H](O)[C@@H](OC)C(=O)[C@H](C)C[C@H](C)/C=C/C=C/C=C/1C` [rapamycin], the “findings after i.v. administration” value [1] is listed as “injury (swelling and focal lesion) at the injection site, lymphoid atrophy and periarterial edema in the heart, liver”, the “stability at alkaline pH conditions” value [2] is listed as “degrade rapamycin rapidly in hours or less” and the “skin finding after subcutaneous administration” value [3] is listed as “skin ulceration”. For the same compound, the concentration at 12 h ([4]; brain) was 108 ± 37.4 ng/g, the concentration at 12 h ([4]; heart) was 441 ± 81.6 ng/g and the concentration at 12 h ([4]; kidneys) was 469 ± 27.3 ng/g. For the same compound, the concentration at 12 h ([4]; liver) was 379 ± 40.6 ng/g, the concentration at 12 h ([4]; lungs) was 618 ± 299 ng/g and the concentration at 12 h ([4]; lymph nodes) was 705 ± 116 ng/g. It also gave a concentration at 12 h ([4]; muscle) of 316 ± 154 ng/g, a concentration at 12 h ([4]; spleen) of 183 ± 66.5 ng/g and a Mean concentration of rapamycin in Tumor ([4]; mice, 12 h post 10 mg/kg equivalent rapamycin, i.p. (free rapamycin), s.c. (HA-L-Rapa), Mean ± SD, n=5) of 1240 ± 256 ng/g. It also gave an AUC(0-inf) [5, 11] of 2360 ± 460 ng·h/mL, a Cmax [5, 11] of 173 ± 69.1 ng/mL and a half-life [5, 11] of 624 ± 226 min. For the same compound, the Vd ([5]; rats, free rapamycin i.p., HA-L-Rapa s.c., 10 mg/kg equivalent rapamycin, Mean ± SD, n=3) was 37.68 ± 15.49 L/kg, the CI ([5]; rats, free rapamycin i.p., HA-L-Rapa s.c., Mean ± SD, n=3) was 4.23 ± 0.95 L/kg/h and the mortality [6] was 40%. The median survival time [7] was 15 days.

For `C=CC[C@@H]1/C=C(\C)C[C@H](C)C[C@H](OC)[C@H]2O[C@@](O)(C(=O)C(=O)N3CCCC[C@H]3C(=O)O[C@H](/C(C)=C/[C@@H]3CC[C@@H](O)[C@H](OC)C3)[C@H](C)[C@@H](O)CC1=O)[C@H](C)C[C@@H]2OC` [tacrolimus], the “stability at alkaline pH conditions” value [2] is given as “stable at alkaline pH conditions for over a week”.

For “HA-Rapamycin-42-(3′-amino-4′-methoxy)benzoate [HA-L-Rapa]”, the “cell viability compared to the free drug” value [8] was “no significant difference”, the “tumor volume on day 20 compared with the control group” value ([7]; 10 mg/kg equivalent rapamycin) was “significant decrease” and the median survival time [7] was 22 days. For the same compound, the “lung metastases observed at necropsy (animals of group)” value ([7]; 4T1.2neu model, n=5) was 1/5, the “survival compared with control” value ([7]; BALB/c mice with 4T1.2neu breast cancer) was “significantly longer survival” and the “incidence of ulcerated tumor” value ([7]; mammary carcinoma bearing mice) was “diminished the incidence of ulcerated tumor”. For the same compound, the “tumor growth compared to the non-treatment group” value ([7]; mammary carcinoma bearing mice) was “significantly inhibited tumor growth”, the “rapamycin uptake compared to the free drug” value ([9]; CD44 blocked with H-CAM, p=0.13) was “no difference” and the “drug uptake compared to free rapamycin” value ([9]; CD44 positive cells, p=0.012) was 3.2 times.

For hyaluronic acid, the turnover half-life [10] is given as 12 to 72 h.
